Results: patent publication US11505797B2, “Gene knockout of variant NRF2 for treatment of cancer” (Christiana Care Health Services, Inc., priority 2019, dated 2022)
“Also recorded” adds a separate entry of the source.

Assays:
[1] = system: wildtype NRF2 gene in the H1703 cell line; assay: TIDE indel efficiency of R34G sgRNA at various lengths in H1703 parental cells; assay type: cell-based, human; settings: for total indel efficiency: 250 pmol sgRNA to 50 pmol Cas9, 72 hours
Procedure: H1703 parental cells were cultured 48 hours prior to transfections and about 60-80% confluent on the day of transfection. 10^6 cells per 100 ul was used per transfection and each condition was run in duplicate.
Each CRISPR/Cas9 RNP was complexed at a 5:1 ratio of sgRNA to Cas9. 250 pmol of sgRNA was complexed at room temperature with 50 pmol of Cas9, in duplicate. The RNP complex was then transfected into H1703 parental cells using nucleofection (Lonza) with the SF Nucleofection Kit. Transfected cells were plated and allowed to recover for 72 hours. After the 72 hours, each sample of cells was collected by trypsinization and pelleted for further analysis. Cell pellets were used for genomic DNA isolation, PCR and Sanger sequencing.
It has been reported that gRNA length can affect target specificity (Fu et al., Nat. Biotechnol. 32:279-84 (2014)). The efficiency of indel formation of the various length R34G sgRNAs to the wildtype “on-target” site was evaluated. sgRNAs for each length were synthetized and complexed with purified Cas9. Replicate experiments were carried out with H1703 lung squamous cells that were transfected with each RNP, recovered for 72 hours, then analyzed for indel formation. No R34G site is present in the wildtype NRF2 gene in the H1703 cell line, therefore only minimal or background gene editing activity is expected.

[2] = system: NRF2 knockout A549 cells (2-11); assay: MTS cell proliferation assay, NRF2 knockout A549 cells (2-11); assay type: cell-based, human; settings: 2-11 knockout A549, increasing dosages, 72 hours; listed as Carboplatin
Procedure: Cell viability was evaluated using the CellTiter 96 Aqueous Non-Radioactive Cell Proliferation Assay (Promega, Madison, Wis.). A549 cell lines were plated at 2×10^3 cells per well and allowed to culture for 24 hours. The cell media was then aspirated, the cells washed with PBS, then exposed to the MTS reagent for 3 hours. After 3 hours of MTS bio-reduction by proliferating cells, the formazan product's absorbance was measured using a 450 nm filter on an Infinite 2000 PRO microplate reader (Tecan, Mannadorf, Switzerland). Cell viability after drug exposure was evaluated using the CellTiter 96 Aqueous Non-Radioactive Cell Proliferation Assay. A549 cell lines were plated at 2×10^3 cells per well and allowed to culture for 24 hours. The cells were then treated with cisplatin, carboplatin, or a combination of cisplatin and vinorelbine for three days. The cell media was then aspirated, the cells washed with PBS, then exposed to the MTS reagent for 3 hours. After 3 hours of MTS bio-reduction by proliferating cells, the formazan product's absorbance was measured using a 450 nm filter on an Infinite 2000 PRO microplate reader.

[3] = system: NRF2 knockout A549 (2-11) tumors; assay: Xenograft mouse model, NRF2 knockout A549 (2-11) tumors; assay type: in vivo, athymic nude mice; settings: tail vein day 0, 3, 6, 9; cisplatin 2 mg/kg; cisplatin 5 mg/kg + vinorelbine 5 mg/kg; carboplatin 25 mg/kg
Procedure: The human xenograft model was established using methodology reported previously. Kellar et al., Biomed Res. Int. […] Female athymic nude mice (Envigo, 5-6 weeks old) were used in this study. Approximately 5×10^6 cells (wild type A549 or homozygous knockout (clonal expansion 2-11)) suspended in PBS with 20% Matrigel were injected subcutaneously into right flank of each mouse. Tumor volume was measured three times a week with a digital caliper once palpable, and calculated using the formula, tumor size=ab^2/2, where ‘a’ is the larger and ‘b’ is the smaller of the two dimensions. When tumors grew up to a mean volume of around 100 mm^3, A549 tumor bearing mice or A549-2-11 tumor bearing mice were randomly divided into 7 groups (N=5 for each group) respectively and subject to dose/regimen-finding study. […] Tumor volume and body weight was closely monitored over time. After 16 days, the animals were sacrificed, with tumor removed, weighed and processed for molecular analysis. Mice were euthanized. The data were expressed as mean±SD. Student's t-test and one-way or two-way ANOVA was used to assess the significance of difference. A P value<0.05 was considered significant.
A549 xenografts were resected on day 16, snap frozen in liquid nitrogen and stored in −80° C. until usage. All immunofluorescence staining was performed as previously described. Wang et al., Investig. Opthalmology Vis. […] Briefly, tumors were embedded in Optimum Cutting Temperature (Tissue Tek, Torrance, Calif., USA) and 16-μm-thick sections were obtained with a Leica CM3050 cryostat (Leica Microsystems, Buffalo Grove, Ill., USA), and mounted on slides. Slides were fixed and incubated with blocking buffer for 1 hour at room temperature. […] Sections were washed in PBS, then mounted with SlowFade Gold antifade mountant with DAPI (Invitrogen, Carlsbad, Calif., USA). Images were obtained with a Zeiss Observer.Z1 microscope (Carl Zeiss, Inc., Gottingen, Germany). The TUNEL assay was conducted with In Situ Cell Death Detection Kit, Fluorescein (Roche, Base, Switzerland), following the manufacturer's instructions. […]

[4] = system: NRF2 locus (exon 4) in A549 cells; assay: TIDE indel analysis of bulk sorted eGFP+ A549 cells transfected with pX458 gRNA1 or gRNA2; assay type: cell-based, human; settings: bulk sorted eGFP+ A549 population, pX458 plasmid
Procedure: A549 cells were transfected at a concentration of 5×10^5 cells/100 μl in 4 mm gap cuvette (BioExpress, Kaysville, Utah, USA). NRF2 targeting pX458 constructs were separately electroporated (250 V, LV, 13 ms pulse length, 2 pulses, 1 s interval) into A549 cells using a Bio-Rad Gene Pulser XCell Electroporation System (Bio-Rad Laboratories, Hercules, Calif., USA). Cells were then recovered in 6-well plates with complete growth media at 37° C. for 72 hours prior to sorting. […] Clones were expanded and transferred to larger plates as the individual clones reached confluence, with DNA isolation occurring when cells reached confluence in a six-well plate (1×10^6 cells/mL). […]
FIG. 1B illustrates the functional domains of the NRF2 protein including the KEAP1 Binding Domain, Transactivation Domain, Repressor Binding Domain, β-TrCP Binding Domain, DNA Binding Domain and the Transcriptional Activation Domain. […] To evaluate the efficiency of CRISPR-directed NRF2 knockout in the total targeted population, eGFP+ cells were isolated as a population, and the degree of genetic disruption at the NRF2 locus in cells, transfected with either gRNA1 or gRNA2 pX458, was determined. The sorted populations were Sanger-sequenced and the resulting trace files were analyzed for the presence of indels, a marker for gene disruption. […]

Compound	sequence remaining wildtype ([1]; first value (replicate 1)) [%]	total indel efficiency ([1]; first value (replicate 1)) [%]	sequence remaining wildtype ([1]; replicate 2) [%]	total indel efficiency ([1]; replicate 2) [%]	chemosensitivity (MTS cell proliferation) [2]	tumor growth over 16 days [3]	indels by TIDE (NRF2 disruption) [4]
GATATAGATCTTGGAGTAAG (listed as DNA, chemistry not given here) [20 nucleotide length sgRNA]	98.4	0.8	96.2	2.9	–	–	–
CAAGATATAGATCTTGGAGTAAG (listed as DNA, chemistry not given here) [23 nucleotide length sgRNA]	95.8	3.4	95.2	3.8	–	–	–
AAGATATAGATCTTGGAGTAAG (listed as DNA, chemistry not given here) [22 nucleotide length sgRNA]	98.2	1.2	96.5	2.3	–	–	–
TATAGATCTTGGAGTAAG (listed as DNA, chemistry not given here) [18 nucleotide length sgRNA]	97.4	1.9	96.6	2.6	–	–	–
N.N.O=C([O-])C1(C(=O)[O-])CCC1.[Pt+2] [carboplatin]	–	–	–	–	the cell killing response reflected what was observed in the experiments using cisplatin	the same reduced proliferation and growth trend described above is reproduced; also recorded: significant reduction in tumor cell proliferation	–
5′-UGAUUUAGACGGUAUGCAACAGG-3′ (expressed or natural sequence) [gRNA2]	–	–	–	–	–	–	significant amount of indels
5′-UCGAUGUGACCGGGAAUAUCAGG-3′ (expressed or natural sequence) [gRNA1]	–	–	–	–	–	–	significant amount of indels
ATAGATCTTGGAGTAAG (listed as DNA, chemistry not given here) [17 nucleotide length sgRNA]	98.0	1.5	97.7	1.6	–	–	–
